# From PMC3083445, “Mastering the Canonical Loop of Serine Protease Inhibitors: Enhancing Potency by Optimising the Internal Hydrogen Bond Network” (PLoS ONE, 2011)
# Where two headings read alike, the source gives them in different places. Where a SMILES comes first, the peptide text is derived from it. Bridges are numbered along the chain shown (N, C = ends).
# Columns and labels:
# KLK4 [1] = target: T1, KLK4 (Homo sapiens, UniProt Q9Y5K2); assay: biochemical
# Description: (§3) Increasing concentrations of inhibitors were incubated with various concentration of protease (final concentrations: KLK4, 1.5 nM; KLK12, 15 nM; KLK14, 2 nM; trypsin, 1 nM; matriptase, 4 nM; thrombin, 25 nM; α-chymotrypsin 25 nM) for 20 min in 200 µl assay buffer (100 mM Tris-HCl, 100 mM NaCl2, 0.005% triton-X, pH 8.0). Assays with thrombin and trypsin included 10 mM CaCl2. Enzyme activity was initiated by addition of substrate in 100 µl assay buffer (final concentration 100 µM; see Table 2). The rate of hydrolysis was measured at 405 nm over 7 min and was linear over this period. […] For SFTI-FCQR Asp14, K i was determined by inhibition at various substrate concentrations using the competitive inhibition model and non-linear regression in Prism 5 (GraphPad Software Inc). The K i for this inhibitor was also determined using the Morrison equation for tight binding inhibitors [43] (FVQR-pNA K M = 679.9±113.1 µM [16]) and non-linear regression in Prism 5. […] The k on and k off were determined from the lag phases and steady state of inhibition as previously described [44] using assay conditions as above and 500 µM substrate.
# KLK14 [2] = target: T2, KLK14 (Homo sapiens, UniProt Q9P0G3); assay: Amidolytic inhibition assay of KLK14 with pNA substrate; assay type: biochemical
# T2 construct: polyhistidine (C); made in house; host or cells: Sf9 insect cells
# T2 sequence (Q9P0G3 25-251): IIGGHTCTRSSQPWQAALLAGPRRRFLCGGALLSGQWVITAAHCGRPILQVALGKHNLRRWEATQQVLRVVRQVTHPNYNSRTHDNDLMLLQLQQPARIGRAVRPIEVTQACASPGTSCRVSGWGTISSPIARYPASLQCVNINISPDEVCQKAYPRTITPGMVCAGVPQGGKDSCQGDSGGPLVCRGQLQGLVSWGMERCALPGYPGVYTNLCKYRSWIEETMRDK
# Description: (§1) Assays with thrombin and trypsin included 10 mM CaCl2. […] Proteolysis fragments were separated on 10% polyacrylamide gels.
# β-Trypsin = target: T3, β-Trypsin (Bos taurus, UniProt P00760); assay: Amidolytic inhibition assay of β-trypsin; assay type: biochemical, bovine
# T3 construct: Bovine β-trypsin, bovine α-chymotrypsin and human thrombin were obtained from Sigma; purchased Sigma
# T3 sequence (P00760 24-246): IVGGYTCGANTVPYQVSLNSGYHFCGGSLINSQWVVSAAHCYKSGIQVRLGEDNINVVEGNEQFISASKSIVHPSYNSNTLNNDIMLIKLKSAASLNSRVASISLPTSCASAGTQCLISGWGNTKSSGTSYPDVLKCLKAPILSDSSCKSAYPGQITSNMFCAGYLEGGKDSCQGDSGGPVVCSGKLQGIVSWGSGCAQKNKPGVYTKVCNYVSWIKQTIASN
# Description: as §1
# Matriptase = target: T4, Matriptase (Homo sapiens, UniProt Q9Y5Y6); assay: Amidolytic inhibition assay of matriptase; assay type: biochemical
# T4 construct: purchased R&D Systems
# T4 sequence (Q9Y5Y6 615-855 limits assumed): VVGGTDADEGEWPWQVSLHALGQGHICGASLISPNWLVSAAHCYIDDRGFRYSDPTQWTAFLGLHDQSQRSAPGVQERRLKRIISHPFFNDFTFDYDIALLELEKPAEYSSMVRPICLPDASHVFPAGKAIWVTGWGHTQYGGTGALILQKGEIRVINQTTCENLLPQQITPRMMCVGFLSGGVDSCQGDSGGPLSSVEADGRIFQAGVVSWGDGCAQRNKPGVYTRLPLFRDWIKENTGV
# Description: as §1
# Thrombin [3] = target: T5, Thrombin (Homo sapiens, UniProt P00734); assay: Amidolytic inhibition assay of thrombin; assay type: biochemical
# T5 construct: Bovine β-trypsin, bovine α-chymotrypsin and human thrombin were obtained from Sigma; purchased Sigma
# Description: as §1
# α-chymotrypsin = target: T6, α-chymotrypsin (Bos taurus, UniProt P00766); assay: Amidolytic inhibition assay of α-chymotrypsin; assay type: biochemical, bovine
# T6 construct: Bovine β-trypsin, bovine α-chymotrypsin and human thrombin were obtained from Sigma; purchased Sigma
# Description: as §1
# KLK12 = target: T7, KLK12 (Homo sapiens, UniProt Q9UKR0); assay: Inhibition of fibrinogen proteolysis by KLK12 (SDS-PAGE); assay type: biochemical; conditions: up to 10,000 nM inhibitor; 7 µM fibrinogen, 180 min
# T7 construct: purchased R&D Systems
# T7 sequence (Q9UKR0 18-248): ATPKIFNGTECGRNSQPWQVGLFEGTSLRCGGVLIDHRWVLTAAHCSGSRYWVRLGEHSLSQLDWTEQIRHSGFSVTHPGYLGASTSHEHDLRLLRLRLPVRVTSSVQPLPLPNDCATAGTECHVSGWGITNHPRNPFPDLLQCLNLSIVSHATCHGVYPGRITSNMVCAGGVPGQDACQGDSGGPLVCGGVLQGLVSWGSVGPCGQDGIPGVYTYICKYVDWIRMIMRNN
# Description: as §1
# KLK14 [4] = target: T2, KLK14; assay: Inhibition of fibrinogen proteolysis by KLK14 (SDS-PAGE); assay type: biochemical; conditions: up to 10,000 nM inhibitor; 7 µM fibrinogen, 90 min
# Description: as §1
# trypsin = target: T8, trypsin (Bos taurus, UniProt P00760); assay: Inhibition of fibrinogen proteolysis by trypsin (SDS-PAGE); assay type: biochemical, bovine; conditions: up to 10,000 nM inhibitor; 7 µM fibrinogen, 15 min
# T8 construct: Bovine β-trypsin, bovine α-chymotrypsin and human thrombin were obtained from Sigma; purchased Sigma
# T8 sequence (P00760 24-246): T3 sequence (P00760 24-246)
# Description: as §1
# [5] = Stability of SFTI variants in culture with prostate cancer cells; assay type: in vitro ADME; conditions: human; 1 µM inhibitor in serum-containing media on LNCaP, 22Rv1 and PC3 monolayers; residual KLK4 inhibition; read-out: half-life in cell culture
# Description: (§2) The half-life in cell culture for SFTI-FCQR Asn14 and SFTI-FCQR Lys14 was determined using previously described methods. Briefly, monolayers of LNCaP, 22Rv1 and PC3 cells were established in RPMI 1640 medium supplemented with 10% foetal calf serum (HyClone), 100 U/ml penicillin (Invitrogen) and 100 µg/ml streptomycin (Invitrogen). Cells were treated ±1 µM inhibitor (SFTI-FCQR Asn14 or SFTI-FCQR Lys14) in fresh serum-containing media. Samples of media were taken at 24 hr intervals and boiled at 97°C for 15 min to denature serum protein. Residual inhibition by SFTI-FCQR variants was determined in competitive kinetic assays (as above), adding a volume of media to give 10 nM SFTI-FCQR Asn14 or 25 nM SFTI-FCQR Lys14 at 0 hr. Media without inhibitor was used to adjust for any endogenous media inhibition and data represent the mean ± SEM of three triplicate experiments.
# [6] = Bioavailability / serum levels in mice by LC-MS; assay type: in vivo; conditions: 3 mg/kg
# Description: Stability and bioavailability of SFTI-FCQR Asn14 in vivo was assessed in BALB/cFoxn1/Arc mice by oral, intravenous and intraperitoneal delivery (3 mg/kg). Inhibitor was dissolved in PBS at a concentration of 0.6 mg/ml prior to dosing. Serum levels of SFTI-FCQR Asn14 were subsequently measured by Liquid Chromatography-Mass Spectrometry (LC-MS) at Tetra Q laboratories (University of Queensland, Brisbane, Australia). This study was carried out in strict accordance to the recommendations of the Australian Code of Practice for the Care and Use of Animals for Scientific purposes (7th edition 2004) and the protocol was approved by the University of Queensland Animal Ethics Committee (ABS group) which assigned the project approval code TetraQ/479/09/Bluebox. All efforts were made to minimize suffering by experimental animals.
# KLK4 [7] = target: T1, KLK4
# Description: as §3
# KLK4 [8] = target: T1, KLK4; assay: Inhibition of fibrinogen proteolysis by KLK4 (SDS-PAGE); assay type: biochemical; set-up: polyhistidine (C); made in house; host or cells: Sf9 insect cells; conditions: 7 µM fibrinogen, 90 min
# Description: as §1
# [9] = tested on: LNCaP, 22Rv1 and PC3 cells; set-up: method as in PMID 19549601; conditions: cited from earlier work
# [10] = tested on: LNCaP, 22Rv1 and PC3 cells; assay: Stability of SFTI variants in culture with prostate cancer cells; assay type: in vitro ADME; conditions: 1 µM inhibitor in serum-containing media on prostate cancer cells; residual KLK4 inhibition
# Description: as §2
# KLK4 [11] = target: T1, KLK4; assay: in vitro; conditions: recombinant KLK4 (isolated protease), pH 8
# Description: as §3
# Thrombin [12] = target: T5, Thrombin; set-up: method as in PMID 11549459; conditions: substrate N-t-Boc-LRR-AMC; cited from earlier work
# [13] = relative to SFTI-FCQR Asp14 (Table 2)
# T1 sequence (Q9Y5K2 31-254): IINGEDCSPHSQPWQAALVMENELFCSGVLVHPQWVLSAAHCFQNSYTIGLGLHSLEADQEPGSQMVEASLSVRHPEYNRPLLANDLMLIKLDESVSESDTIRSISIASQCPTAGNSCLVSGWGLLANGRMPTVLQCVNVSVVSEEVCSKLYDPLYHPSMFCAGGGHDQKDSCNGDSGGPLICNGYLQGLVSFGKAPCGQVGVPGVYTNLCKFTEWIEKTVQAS
compound,measurement,setting,value
CC[C@H](C)[C@@H]1NC(=O)[C@@H]2CCCN2C(=O)[C@@H]2CCCN2C(=O)[C@H]([C@@H](C)CC)NC(=O)[C@H](CO)NC(=O)[C@H](CCCNC(=N)N)NC(=O)[C@H](CCC(N)=O)NC(=O)[C@@H]2CSSC[C@H](NC1=O)C(=O)N[C@@H](Cc1ccccc1)C(=O)N1CCC[C@H]1C(=O)N[C@@H](C)C(=O)NCC(=O)N[C@@H](Cc1ccccc1)C(=O)N2 [SFTI-FCQR Ala14] (cyclo(GFCQRSIPPICFPA); disulfide 3-11),IC50,KLK4 [1],26.2 ± 0.85 nM
same,Ki,KLK4 [1],18.3 ± 3.36 nM
CC[C@H](C)[C@@H]1NC(=O)[C@@H]2CCCN2C(=O)[C@@H]2CCCN2C(=O)[C@H]([C@@H](C)CC)NC(=O)[C@H](CO)NC(=O)[C@H](CCCNC(=N)N)NC(=O)[C@H](CCC(N)=O)NC(=O)[C@@H]2CSSC[C@H](NC1=O)C(=O)N[C@@H](Cc1ccccc1)C(=O)N1CCC[C@H]1C(=O)N[C@@H](CC(N)=O)C(=O)NCC(=O)N[C@@H](Cc1ccccc1)C(=O)N2 [SFTI-FCQR Asn14] (cyclo(GFCQRSIPPICFPN); disulfide 3-11),relative increase in KLK14 inhibition compared to SFTI-FCQR Asp14,KLK14 [2]; [13],six-fold
same,IC50,"KLK14 [2]; substrate Ac-GSLR-pNA 100 µM, KLK14 2 nM",251 ± 21.9 nM
same,relative increase in trypsin inhibition compared to SFTI-FCQR Asp14,β-Trypsin; [13],two-fold
same,IC50,"β-Trypsin; substrate BAPNA 100 µM, trypsin 1 nM, 10 mM CaCl2",2180 ± 145 nM
same,inhibition of matriptase,"Matriptase; at 10,000 nM inhibitor",no inhibition
same,IC50,"Matriptase; substrate Bz-FVRpNA 100 µM, matriptase 4 nM",> 10000 nM
same,inhibition of thrombin,"Thrombin [3]; at 10,000 nM inhibitor",no inhibition
same,IC50,"Thrombin [3]; substrate Bz-FVRpNA 100 µM, thrombin 25 nM, 10 mM CaCl2",> 10000 nM
same,inhibition of α-chymotrypsin,"α-chymotrypsin; at 10,000 nM inhibitor",no inhibition
same,IC50,"α-chymotrypsin; substrate WpNA 100 µM, α-chymotrypsin 25 nM",> 10000 nM
same,inhibition of KLK12 fibrinogen proteolysis,KLK12,No inhibition
same,inhibition of KLK14 fibrinogen proteolysis,KLK14 [4],No inhibition
same,inhibition of trypsin fibrinogen proteolysis,trypsin,No inhibition
same,half-life at 1 µM,[5],55 to 70 h
same,half-life,"[6]; BALB/cFoxn1/Arc, mouse, serum, IV and IP",25 to 28 min
same,level at time molar at 4 h,"[6]; BALB/cFoxn1/Arc, mouse, serum, IV and IP, irrespective of delivery route, read-out: residual inhibitor concentration in serum after 4 hours",10 ± 0.8 nM
same,serum levels after oral delivery,"[6]; oral, LC-MS",did not result in detectable levels of inhibitor in serum
same,calculated second order rate constant (k off/K i),KLK4 [7]; calculated from k off and K i,8.03e+08 M⁻¹ s⁻¹
same,fold improvement in KLK4 inhibition compared to SFTI-FCQR Asp14,KLK4 [7]; [13],125 fold
same,IC50,"KLK4 [7]; substrate FVQRpNA 100 µM, KLK4 1.5 nM, 20 min preincubation (SFTI-FCQR Asn14: 0.15 nM KLK4 over 2 hr; Lys14 assayed immediately after addition)",0.0635 ± 0.0024 nM
same,Ki,KLK4 [1],0.0386 ± 0.006 nM
same,lowest inhibitor concentration blocking KLK4 proteolysis of fibrinogen,KLK4 [8],62.5 nM
CC[C@H](C)[C@@H]1NC(=O)[C@@H]2CCCN2C(=O)[C@@H]2CCCN2C(=O)[C@H]([C@@H](C)CC)NC(=O)[C@H](CO)NC(=O)[C@H](CCCNC(=N)N)NC(=O)[C@H](CCC(N)=O)NC(=O)[C@@H]2CSSC[C@H](NC1=O)C(=O)N[C@@H](Cc1ccccc1)C(=O)N1CCC[C@H]1C(=O)N[C@@H](CC(=O)O)C(=O)NCC(=O)N[C@@H](Cc1ccccc1)C(=O)N2 [SFTI-FCQR Asp14] (cyclo(GFCQRSIPPICFPD); disulfide 3-11),Ki,"KLK4 [7]; competitive inhibition model, various substrate concentrations, FVQRpNA",3.62 ± 0.26 nM
same,stability in culture with prostate cancer cells,[9],highly resistant to breakdown
same,Ki,KLK4 [1],3.89 ± 0.4 nM
same,lowest inhibitor concentration blocking KLK4 proteolysis of fibrinogen,KLK4 [8],250 nM
CC[C@H](C)[C@@H]1NC(=O)[C@@H]2CCCN2C(=O)[C@@H]2CCCN2C(=O)[C@H]([C@@H](C)CC)NC(=O)[C@H](CO)NC(=O)[C@H](CCCNC(=N)N)NC(=O)[C@H](CCC(N)=O)NC(=O)[C@@H]2CSSC[C@H](NC1=O)C(=O)N[C@@H](Cc1ccccc1)C(=O)N1CCC[C@H]1C(=O)NCC(=O)NCC(=O)N[C@@H](Cc1ccccc1)C(=O)N2 [SFTI-FCQR Gly14] (cyclo(GFCQRSIPPICFPG); disulfide 3-11),IC50,KLK4 [1],14.7 ± 1.09 nM
same,Ki,KLK4 [1],10.4 ± 2.87 nM
CC[C@H](C)[C@@H]1NC(=O)[C@@H]2CCCN2C(=O)[C@@H]2CCCN2C(=O)[C@H]([C@@H](C)CC)NC(=O)[C@H](CO)NC(=O)[C@H](CCCNC(=N)N)NC(=O)[C@H](CCC(N)=O)NC(=O)[C@@H]2CSSC[C@H](NC1=O)C(=O)N[C@@H](Cc1ccccc1)C(=O)N1CCC[C@H]1C(=O)N[C@@H](CCCCN)C(=O)NCC(=O)N[C@@H](Cc1ccccc1)C(=O)N2 [SFTI-FCQR Lys14] (cyclo(GFCQRSIPPICFPK); disulfide 3-11),initial activity lost within the first 24 hr in cell culture,[10],two-thirds
same,half-life,KLK4 [11],56.3 ± 6.2 min
same,IC50,KLK4 [1],6.07 ± 0.13 nM
same,Ki,KLK4 [1],3.56 ± 0.27 nM
CC[C@H](C)[C@@H]1NC(=O)[C@@H]2CCCN2C(=O)[C@@H]2CCCN2C(=O)[C@H]([C@@H](C)CC)NC(=O)[C@H](CO)NC(=O)[C@H](CCCNC(=N)N)NC(=O)[C@H](CCC(N)=O)NC(=O)[C@@H]2CSSC[C@H](NC1=O)C(=O)N[C@@H](Cc1ccccc1)C(=O)N1CCC[C@H]1C(=O)N[C@@H](CO)C(=O)NCC(=O)N[C@@H](Cc1ccccc1)C(=O)N2 [SFTI-FCQR Ser14] (cyclo(GFCQRSIPPICFPS); disulfide 3-11),IC50,KLK4 [1],29.2 ± 1.08 nM
same,Ki,KLK4 [1],21.2 ± 3.81 nM
SFTI-1: 1.4 kDa cyclic Bowman-Birk serine protease inhibitor isolated from sunflower (Helianthus annuus) seeds,Ki,Thrombin [12],5050 nM
